# Measurements: patent publication US11965006B2, “Antimicrobial and anti-cancer therapy” (UNIVERSITY OF PITTSBURGH—OF THE COMMONWEALTH SYSTEM OF …, priority 2016, dated 2024)
# “Also recorded” adds a separate entry of the source. Square brackets hold non-standard residues; d marks the D form. Ends that are not written are not given here. Peptide text beside a SMILES is read from it.
# Key:
# [1] = tested on: Klebsiella pneumonia multi-drug resistant (MDR) clinical isolates; test: Bacterial growth (O.D. readings) of Kp isolates treated with D-amino acid substituted AMPs; assay type: cell-based
# Description: (§1) Tables 3 and 4 provide the MIC data for the tested AMPs against a variety of infectious species. The following strains were tested: Enterococcus faecium MDR clinical isolates Ef 25153 and Ef 26125; methicillin-resistant Staphylococcus aureus (MRSA) clinical isolates USA300 and 150-10; Klebsiella pneumonia MDR clinical isolates C3, C5, A5, D7 and E6; and Pseudomonas aeruginosa MDR clinical isolates PA 82-8 and PA 129-5. […] Table 5 provides the data for the D-amino acid substituted AMPs and their bactericidal activities against various Klebsiella pneumonia multi-drug resistant (MDR) clinical isolates. All odd number Kp bacteria (isolated prior to colistin treatment; colistin sensitive) are paired with the corresponding even number Kp bacteria (isolated after colistin treatment; colistin resistant) from the same patient. O.D. readings represent the bacterial growth with a background reading of about 0.049+/−0.003.
# [2] = tested on: P. aeruginosa lipopolysaccharide (LPS)-induced secretion of tumor necrosis factor (TNF) in Raw (264.7) Cells; test: Neutralization of LPS-induced TNF secretion; assay type: cell-based; conditions: 1 μg/ml LPS
# Description: Anti-inflammatory activity is based on the determination of cytokine stimulation of major inflammatory (e.g. TNF) or anti-inflammatory (e.g., IL-10) cytokines. For in vitro studies, TNF is measured using culture medium from LPS-stimulated macrophage cultures in the presence or absence of peptide treatment. For in vivo studies, cytokine levels in bronchoalveolar lavage (BAL) fluid were quantified using the mouse cytokine multiplex panel assay (Milliplex; Millipore, Billerica, Mass.). The expressions of cytokines were analyzed using the Luminex assay system, based on manufacturer's instructions and our previous publication. Standard recombinant protein solution was used to generate a standard curve for each analyzed protein. Absolute cytokine concentrations were calculated from the standard curve for each cytokine.
# A high dosage (1 μg/ml) of LPS was used to stimulate the TNF secretion in raw cells.
# [3] = tested on: Enterococcus faecium MDR clinical isolates; assay type: cell-based; conditions: MDR clinical isolates, 18 h
# Description: (§2) The bactericidal activities were examined using standard bacterial culture media (MHB) without the inclusion of human blood.
# as §1
# [4] = tested on: Klebsiella pneumonia MDR clinical isolates; assay type: cell-based; conditions: 18 h
# Description: as §2, §1
# [5] = tested on: Pseudomonas aeruginosa MDR clinical isolates; assay type: cell-based; conditions: MDR clinical isolates, 18 h
# Description: as §2, §1
# [6] = tested on: methicillin-resistant Staphylococcus aureus (MRSA) clinical isolates; assay type: cell-based; conditions: methicillin-resistant clinical isolates, 18 h
# Description: as §2, §1
# [7] = In vivo toxicity / maximum tolerated dose; design: species or system Mice (strain: Swiss Webster)
# Description: The modified AMPs show a lower toxicity and higher maximum tolerated dosage (MTD) than WLBU2 (SEQ ID No. 26). The MTD for WLBU2 (SEQ ID No. 26) is 15 mg/kg, for Colistin is 10 mg/kg, and SEQ ID No. 15 is 30 mg/kg (FIG. 14A).
# Mice (strain: Swiss Webster) were injected with SEQ ID No. 15 peptides intravenously (i.v.) or intraperitoneally (i.p.) at the concentrations indicated. […] Thus, the estimated maximum tolerated dose (MTD) is around 40-50 mpk (i.v.). On a similar setting of testing other AMPS, the MTD for WLBU2 is 15 mpk (i.v.) and 10 mpk (i.v.) for colistin.
# [8] = Kp strain 1 (colistin sensitive), background about 0.049
# [9] = Kp strain 2 (colistin resistant), background about 0.049
# [10] = Kp strain 3 (colistin sensitive)
# [11] = Kp strain 4 (colistin resistant)
# [12] = Kp strain 5 (colistin sensitive)
# [13] = Kp strain 6 (colistin resistant)
# [14] = Kp strain 7 (colistin sensitive)
# [15] = Kp strain 8 (colistin resistant)
# [16] = Kp strain 9 (colistin sensitive)
# [17] = Kp strain 10 (colistin resistant)
# [18] = Kp strain 11 (colistin sensitive)
# [19] = Kp strain 12 (colistin resistant)
# [20] = Kp strain 13 (colistin sensitive)
# [21] = Kp strain 14 (colistin resistant)
# [22] = Kp strain 15 (colistin sensitive)
# [23] = Kp strain 16 (colistin resistant)
# [24] = Kp strain 17 (colistin sensitive)
# [25] = Kp strain 18 (colistin resistant)
# [26] = Kp strain 19 (colistin sensitive)
# [27] = Kp strain 20 (colistin resistant)
# [28] = Kp strain 21 (colistin sensitive)
# [29] = Kp strain 22 (colistin resistant)
# [30] = Kp strain 23 (colistin sensitive)
# [31] = Kp strain 24 (colistin resistant)
compound,measurement,setting,value
CC(C)[C@H](NC(=O)[C@H](Cc1c[nH]c2ccccc12)NC(=O)[C@H](CCCNC(=N)N)NC(=O)[C@@H](N)CCCNC(=N)N)C(=O)N[C@@H](CCCNC(=N)N)C(=O)N[C@@H](CCCNC(=N)N)C(=O)N[C@@H](C(=O)N[C@@H](CCCNC(=N)N)C(=O)N[C@@H](CCCNC(=N)N)C(=O)N[C@H](C(=O)N[C@@H](Cc1c[nH]c2ccccc12)C(=O)N[C@@H](CCCNC(=N)N)C(=O)N[C@@H](CCCNC(=N)N)C(=O)N[C@H](C(=O)N[C@@H](C(=O)N[C@@H](CCCNC(=N)N)C(=O)N[C@@H](C(=O)N[C@H](C(=O)N[C@@H](CCCNC(=N)N)C(=O)N[C@@H](CCCNC(=N)N)C(=O)N[C@@H](Cc1c[nH]c2ccccc12)C(=O)N[C@@H](C(=O)N[C@@H](CCCNC(=N)N)C(=O)N[C@@H](CCCNC(=N)N)C(=O)O)C(C)C)C(C)C)C(C)C)C(C)C)C(C)C)C(C)C)C(C)C [SEQ ID No. 32] (H-RRWVRR[dV]RRVWRRV[dV]R[dV]VRRW[dV]RR-OH; N-terminus and C-terminus assumed),O.D. reading,[1]; [8],0.039
same,O.D. reading,[1]; [9],0.044
same,O.D. reading,[1]; [10],0.043
same,O.D. reading,[1]; [11],0.042
same,O.D. reading,[1]; [12],0.042
same,O.D. reading,[1]; [13],0.107
same,O.D. reading,[1]; [14],0.042
same,O.D. reading,[1]; [15],0.04
same,O.D. reading,[1]; [16],0.042
same,O.D. reading,[1]; [17],0.048
same,O.D. reading,[1]; [18],0.048
same,O.D. reading,[1]; [19],0.05
same,O.D. reading,[1]; [20],0.048
same,O.D. reading,[1]; [21],0.047
same,O.D. reading,[1]; [22],0.048
same,O.D. reading,[1]; [23],0.045
same,O.D. reading,[1]; [24],0.045
same,O.D. reading,[1]; [25],0.047
same,O.D. reading,[1]; [26],0.048
same,O.D. reading,[1]; [27],0.049
same,O.D. reading,[1]; [28],0.051
same,O.D. reading,[1]; [29],0.048
same,O.D. reading,[1]; [30],0.048
same,O.D. reading,[1]; [31],0.11
CC(C)[C@H](NC(=O)[C@H](Cc1c[nH]c2ccccc12)NC(=O)[C@H](CCCNC(=N)N)NC(=O)[C@@H](N)CCCNC(=N)N)C(=O)N[C@@H](CCCNC(=N)N)C(=O)N[C@@H](CCCNC(=N)N)C(=O)N[C@@H](C(=O)N[C@@H](CCCNC(=N)N)C(=O)N[C@@H](CCCNC(=N)N)C(=O)N[C@@H](C(=O)N[C@@H](Cc1c[nH]c2ccccc12)C(=O)N[C@@H](CCCNC(=N)N)C(=O)N[C@@H](CCCNC(=N)N)C(=O)N[C@H](C(=O)N[C@@H](C(=O)N[C@@H](CCCNC(=N)N)C(=O)N[C@@H](C(=O)N[C@@H](C(=O)N[C@@H](CCCNC(=N)N)C(=O)N[C@@H](CCCNC(=N)N)C(=O)N[C@@H](Cc1c[nH]c2ccccc12)C(=O)N[C@@H](C(=O)N[C@@H](CCCNC(=N)N)C(=O)N[C@@H](CCCNC(=N)N)C(=O)O)C(C)C)C(C)C)C(C)C)C(C)C)C(C)C)C(C)C)C(C)C [SEQ ID No. 33] (H-RRWVRR[dV]RR[dV]WRRV[dV]R[dV][dV]RRW[dV]RR-OH; N-terminus and C-terminus assumed),O.D. reading,[1]; [8],0.104
same,O.D. reading,[1]; [9],0.108
same,O.D. reading,[1]; [10],0.048
same,O.D. reading,[1]; [11],0.047
same,O.D. reading,[1]; [12],0.053
same,O.D. reading,[1]; [13],0.12
same,O.D. reading,[1]; [14],0.046
same,O.D. reading,[1]; [15],0.056
same,O.D. reading,[1]; [16],0.043
same,O.D. reading,[1]; [17],0.131
same,O.D. reading,[1]; [18],0.057
same,O.D. reading,[1]; [19],0.066
same,O.D. reading,[1]; [20],0.05
same,O.D. reading,[1]; [21],0.089
same,O.D. reading,[1]; [22],0.048
same,O.D. reading,[1]; [23],0.054
same,O.D. reading,[1]; [24],0.044
same,O.D. reading,[1]; [25],0.048
same,O.D. reading,[1]; [26],0.049
same,O.D. reading,[1]; [27],0.05
same,O.D. reading,[1]; [28],0.048
same,O.D. reading,[1]; [29],0.05
same,O.D. reading,[1]; [30],0.047
same,O.D. reading,[1]; [31],0.076
"GVKKKWKKKLGLKLWLKISGVVLG [SEQ ID No. 24, reference compound]",neutralizing LPS-induced TNF secretion,[2],Display Neutralizing Activities
same,MIC Ef 25153,[3],>32 µM
same,MIC Ef 26125,[3],16 µM
same,MIC A5,[4],32 µM
same,MIC C3,[4],32 µM
same,MIC PA 82-8,[5],>32 µM
same,MIC PA 129-5,[5],<16 µM
same,MIC MRSA 150-10,[6],>32 µM
same,MIC MRSA USA300,[6],>32 µM
"ILKPGGGTSGGLLGGLLGKVTSVIPGLNNI [SEQ ID No. 1, reference compound]",neutralizing LPS-induced TNF secretion,[2],display neutralizing activities
same,MIC Ef 25153,[3],>32 µM
same,MIC Ef 26125,[3],>32 µM
same,MIC A5,[4],>32 µM
same,MIC C3,[4],>32 µM
same,MIC C5,[4],>32 µM
same,MIC D7,[4],>32 µM
same,MIC E6,[4],>32 µM
same,MIC PA 82-8,[5],>32 µM
same,MIC PA 129-5,[5],>32 µM
same,MIC MRSA 150-10,[6],>32 µM
same,MIC MRSA USA300,[6],>32 µM
LKKWWKKVKGLLGGLLGKVKKVIK [SEQ ID No. 17],MIC Ef 25153,[3],<2 µM
same,MIC Ef 26125,[3],<2 µM
same,MIC A5,[4],>4 µM
same,MIC C3,[4],<2 µM
same,MIC C5,[4],4 µM
same,MIC D7,[4],<2 µM
same,MIC E6,[4],<2 µM
same,MIC PA82 82-8,[5],4 µM
same,MIC PA 129-5,[5],<2 µM
same,MIC MRSA 150-10,[6],<2 µM
same,MIC MRSA USA300,[6],<2 µM
LKKWWKKVKGLLGGLLGKVKSVIK [SEQ ID No. 16],MIC Ef 25153,[3],<2 µM
same,MIC Ef 26125,[3],<2 µM
same,MIC A5,[4],>4 µM
same,MIC C3,[4],<2 µM
same,MIC C5,[4],4 µM
same,MIC D7,[4],<2 µM
same,MIC E6,[4],<2 µM
same,MIC PA82 82-8,[5],4 µM
same,MIC PA 129-5,[5],4 µM
same,MIC MRSA 150-10,[6],4 µM
same,MIC MRSA USA300,[6],<2 µM
LKKWWKKVKGLLGGLLGKVTSVIK [SEQ ID No. 15],tolerability,[7]; 60 mg/kg i.v.,"One mouse injected with 60 mg/kg (mpk, i.v.) died"
same,tolerability,[7]; 30 mpk i.p.,all mice were active and tolerated the dosage
same,tolerability,[7]; 40 mpk i.v.,all mice were active and tolerated the dosage
same,MTD,"[7]; Swiss Webster, mouse, in vivo, FIG. 14A, read-out: maximum tolerated dosage (MTD)",30 mg/kg
same,in vivo toxicity,"[7]; figure legends FIG. 14A, FIG. 30",lower toxicity (higher MTD) than WLBU2; also recorded: very low in vivo toxicity
same,maximum tolerated dose (MTD),"[7]; i.v., Swiss Webster mice",40-50 mpk
same,MIC Ef 25153,[3],2 µM
same,MIC Ef 26125,[3],<1 µM
same,MIC A5,[4],>4 µM
same,MIC C3,[4],<2 µM
same,MIC C5,[4],4 µM
same,MIC D7,[4],2 µM
same,MIC E6,[4],2 µM
same,MIC PA82 82-8,[5],2 µM
same,MIC PA 129-5,[5],1 µM
same,MIC MRSA 150-10,[6],2 µM
same,MIC MRSA USA300,[6],4 µM
LKKWWKTSKGLLGGLLGKVTSVIK [SEQ ID No. 13],neutralizing LPS-induced TNF secretion,[2],Display Neutralizing Activities
same,MIC Ef 25153,[3],<16 µM
same,MIC Ef 26125,[3],<8 µM
same,MIC A5,[4],>16 µM
same,MIC C3,[4],>16 µM
same,MIC C5,[4],16 µM
same,MIC D7,[4],<8 µM
same,MIC E6,[4],<8 µM
same,MIC PA82 82-8,[5],16 µM
same,MIC PA 129-5,[5],<16 µM
same,MIC MRSA USA300,[6],<8 µM
"LLGDFFRKSKEKIGKEFKRIVQRIKDFLRNLLPRTES [SEQ ID No. 25, reference compound]",neutralizing LPS-induced TNF secretion,[2],Do Not Neutralize
same,MIC Ef 25153,[3],<16 µM
same,MIC Ef 26125,[3],<16 µM
same,MIC A5,[4],>32 µM
same,MIC C3,[4],32 µM
same,MIC C5,[4],>32 µM
same,MIC D7,[4],<16 µM
same,MIC E6,[4],<16 µM
same,MIC PA 82-8,[5],32 µM
same,MIC PA 129-5,[5],16 µM
same,MIC MRSA 150-10,[6],32 µM
same,MIC MRSA USA300,[6],>32 µM
